One may read the Km as the substrate concentration at which the rate is half of its maximum. One may read the Ki as the equilibrium dissociation constant of an inhibitor or competing ligand from its target. Read a high Ki as lower affinity.

Test [1] concerns T1, rSmMDH1.
T1 construct: gene SmMDH1
The test is described as follows: absorbance […] nm, Lineweaver-Burk. It is filed as biochemical, Spirometra mansoni. The settings on record: apparent.

For test [2], the target named is T1, rSmMDH1. The test is described as follows: absorbance […] nm, Lineweaver-Burk secondary plot of […]/Vmax. It is filed as biochemical, Spirometra mansoni. To be noted: forward reaction (oxaloacetate reduction, NADH); 100 mM Tris-HCl pH 7.5, 37 °C; reversible, binds enzyme-substrate complex.

For `O=C(O)CC(=O)C(=O)O` [oxaloacetic acid], the Michaelis-Menten constant (Km) with rSmMDH1 [1] (forward reaction, NADH co-substrate, 100 mM Tris-HCl pH 7.5, 37 °C, tested 1-10 mM) was 63500 µM.
`NC(=O)c1ccc[n+]([C@@H]2O[C@H](COP(=O)(O)OP(=O)(O)OC[C@H]3O[C@@H](n4cnc5c(N)ncnc54)[C@H](O)[C@@H]3O)[C@@H](O)[C@H]2O)c1` [NAD]: the Michaelis-Menten constant (Km) in the test with rSmMDH1 [1] (reverse reaction, malic acid co-substrate (methods print lactate), 100 mM Tris-HCl pH 8.6, 37 °C) worked out at 1950 µM.
For `NC(=O)C1=CN([C@@H]2O[C@H](COP(=O)(O)OP(=O)(O)OC[C@H]3O[C@@H](n4cnc5c(N)ncnc54)[C@H](O)[C@@H]3O)[C@@H](O)[C@H]2O)C=CC1` [NADH], the Km with rSmMDH1 [1] (forward reaction, oxaloacetate co-substrate, 100 mM Tris-HCl pH 7.5, 37 °C) was determined as 1750 µM.
Turning to `NC(=S)c1cccnc1` [thionicotinamide], at rSmMDH1 [2], the affinity, expressed as Ki, was 144 µM.
Turning to `O=C(O)C[C@H](O)C(=O)O` [malic acid], the Michaelis-Menten constant (Km) with rSmMDH1 [1] (reverse reaction, NAD co-substrate, 100 mM Tris-HCl pH 8.6, 37 °C) is 1190 µM.
